From BindingDB's records for doi:10.7270/Q2CV4GM1 (D3R/Abbott, 2015) come the findings set out here.

“And” between values parts separate entries of the source, which are not always exact repeats. Identical values can stand only once.

This assay has as its target T1, Tyrosine-protein kinase SYK [355-635] (Homo sapiens, UniProt P43405).
T1 construct: 355-635
Description: SYK assay_HTRF.
What is called IC50 is the concentration that gives 50% inhibition. On to `CCN(c1nc(Nc2ccc(CCO)cc2)ncc1F)c1cccc2[nH]ncc12` [GTC000333A], for which the IC50 was determined as 27.3 nM.

The molecule `O=c1[nH]c2ccc(Nc3nccc(N(CC4CCNCC4)c4cccc5[nH]ncc45)n3)cc2[nH]1` [GTC000292A] registered an IC50 of 10.8 nM.

In the case of `CCN(c1nc(Nc2cccc(-c3noc(C)n3)c2)ncc1F)c1cccc2[nH]ncc12` [GTC000320A], the IC50 turned out to be 21.4 nM.

Molecule `CNC(=O)CN(c1nc(Nc2ccc3c(c2)S(=O)(=O)NC3)ncc1F)c1cccc2[nH]ncc12` [GTC000358A] displayed an IC50 of 81.8 nM. This IC50 lies about 3.8-fold higher than the previous one.

`O=S1(=O)NCc2ccc(Nc3nccc(N(CC(F)(F)F)c4cccc5[nH]ncc45)n3)cc21` [GTC000314A] displayed an IC50 of 15.7 nM. Compared with the last molecule, the IC50 is about 5.2-fold lower.

As to `CCN(c1nc(Nc2cc(S(=O)(=O)NCC3CCCO3)ccc2OC)ncc1F)c1cccc2[nH]ncc12` (centres undefined) [GTC000373A], half-maximal inhibition (IC50) was put at 624 nM. Against the preceding molecule, the IC50 is about 40-fold higher.

`Cc1nc(NC(=O)Cc2ccc(Nc3nccc(Nc4cccc5[nH]ncc45)n3)cc2)sc1C` [GTC000215A] showed an IC50 of 676 nM. The IC50 values of the last two molecules are within 1.5-fold of each other.

The molecule `CCN(c1nc(Nc2ccc(C(=O)NC)cc2)ncc1F)c1cccc2[nH]ncc12` [GTC000271A] returned an IC50 of 6.62 nM. Compared with the last molecule, the IC50 is about 100-fold lower.

For the molecule `c1cc(Nc2ccnc(Nc3ccc(-c4cnco4)cc3)n2)c2cn[nH]c2c1` [GTC000165A], the IC50 is 119 nM and 180 nM and 340 nM and 202 nM.

The molecule `COCCN(c1ccnc(Nc2cccc(S(N)(=O)=O)c2)n1)c1cccc2[nH]ncc12` [GTC000335A] had an IC50 of 22.4 nM.

`O=C(Cc1ccc(Nc2nccc(Nc3cccc4[nH]ncc34)n2)cc1)Nc1cccc(C(F)(F)F)c1` [GTC000212A] came in with an IC50 of 1040 nM.

For `O=C(O)CCCCN(c1ccnc(Nc2ccc3c(c2)S(=O)(=O)NC3)n1)c1cccc2[nH]ncc12` [GTC000229A], the concentration for half-maximal inhibition (IC50) is 1.41 nM and 1.19 nM and 2.47 nM.

Consider `CCN(c1nc(Nc2ccc3c(c2)COC(=O)N3)ncc1F)c1cccc2[nH]ncc12` [GTC000268A], for which the IC50 came out at 6.76 nM.

`CS(=O)(=O)c1cccc(Nc2nccc(N(CCCO)c3cccc4[nH]ncc34)n2)c1` [GTC000338A]: the IC50 is 11.6 nM and 39.7 nM and 85.1 nM.

Turning to `CCN(c1nc(Nc2ccc(N3CCN(C)CC3)cc2)ncc1F)c1cccc2[nH]ncc12` [GTC000363A], the IC50 was 105 nM.

As for `N#Cc1ccc(Nc2nccc(Nc3cccc4[nH]ncc34)n2)cc1` [GTC000139A], the IC50 worked out at 211 nM.

`CC(C)(C)c1ccc(Nc2nccc(Nc3cccc4[nH]ncc34)n2)cc1` [GTC000176A] had an IC50 of 508 nM.

`Cn1c(=O)n(C)c2cc(Nc3nccc(Nc4cccc5[nH]ncc45)n3)ccc21` [GTC000158A]: the IC50 was 98.6 nM and 89.1 nM and 244 nM.

In turn, `CN(c1nc(Nc2cccc(S(C)(=O)=O)c2)ncc1F)c1cccc2[nH]ncc12` [GTC000359A] gave an IC50 of 87.3 nM.

In turn, `Cc1ncoc1-c1cccc(Nc2ncc(F)c(N(C)c3cccc4[nH]ncc34)n2)c1` [GTC000316A] had an IC50 of 16.4 nM.

As for `O=C(Cc1ccc(Nc2nccc(Nc3cccc4[nH]ncc34)n2)cc1)Nc1ccc(C(F)(F)F)cc1` [GTC000211A], the IC50 turned out to be 2930 nM.

In the case of `c1cc(Nc2nccc(Nc3cccc4[nH]ncc34)n2)cc(-c2nc3ccccc3[nH]2)c1` [GTC000157A], the IC50 was 5.4 nM and 15.2 nM.

Turning to `CNC(=O)CN(c1nc(Nc2ccc3c(c2)S(=O)(=O)CC3)ncc1F)c1cccc2[nH]ncc12` [GTC000367A], the IC50 is 81.5 nM and 174 nM and 157 nM and 171 nM.

In the case of `O=S(=O)(Nc1ccccn1)c1ccc(Nc2nccc(Nc3cccc4[nH]ncc34)n2)cc1` [GTC000191A], the IC50 was 673 nM and 571 nM.

Take `FC(F)(F)c1ccc(Nc2nccc(Nc3cccc4[nH]ncc34)n2)cc1` [GTC000136A]: the IC50 worked out at 206 nM.

The molecule `O=C(Cc1ccc(Nc2nccc(Nc3cccc4[nH]ncc34)n2)cc1)Nc1cccc(Cl)c1` [GTC000213A] had an IC50 of 1390 nM. This IC50 lies about 6.7-fold higher than the previous one.

Take `COc1cccc(NC(=O)Cc2ccc(Nc3nccc(Nc4cccc5[nH]ncc45)n3)cc2)c1` [GTC000209A]: the IC50 was 524 nM.

In the case of `NC(=O)c1cccc(Nc2ncc(F)c(N(CCCO)c3cccc4[nH]ncc34)n2)c1` [GTC000344A], 31.8 nM corresponded to half-maximal inhibition (IC50). This IC50 is about 16-fold lower than that of the molecule before.

Regarding `CCN(CC)CCCN(c1ccnc(Nc2cccc(S(N)(=O)=O)c2)n1)c1cccc2[nH]ncc12` [GTC000329A], the IC50 was 23.2 nM and 12.7 nM and 55.7 nM and 25.3 nM.

`COCCCN(c1nc(Nc2cccc(C(N)=O)c2)ncc1F)c1cccc2[nH]ncc12` [GTC000346A] registered an IC50 of 30.3 nM.

As for `O=c1[nH]c2ccc(Nc3nccc(N(CCCO)c4cccc5[nH]ncc45)n3)cc2[nH]1` [GTC000256A], the IC50 was found to be 5.01 nM.

Turning to `CNS(=O)(=O)Cc1ccc(Nc2nccc(Nc3cccc4[nH]ncc34)n2)cc1` [GTC000195A], the IC50 is 426 nM.

For the molecule `c1cc(Nc2ccnc(Nc3ccc4c(c3)OCO4)n2)c2cn[nH]c2c1` [GTC000155A], the IC50 is 40.5 nM and 65.9 nM and 77.6 nM and 267 nM.

The molecule `COCCN(c1ccnc(Nc2ccc3c(c2)S(=O)(=O)NC3)n1)c1cccc2[nH]ncc12` [GTC000285A] returned an IC50 of 8.34 nM.

For `O=S(=O)(c1cccc(Nc2nccc(Nc3cccc4[nH]ncc34)n2)c1)N1CCCCC1` [GTC000179A], it took 4160 nM to reach half-maximal inhibition (IC50). This IC50 lies about 500-fold higher than the previous one.

As for `CCN(c1nc(Nc2ccc3cn[nH]c3c2)ncc1Cl)c1cccc2[nH]ncc12` [GTC000328A], the IC50 was 15.2 nM and 29.6 nM and 50.5 nM and 12.2 nM.

In the case of `CCN(c1nc(Nc2cccc(-c3cnco3)c2)ncc1F)c1cccc2[nH]ncc12` [GTC000306A], the IC50 was 9.02 nM and 16.6 nM and 26.1 nM.

Consider `O=S1(=O)CCc2ccc(Nc3ncc(F)c(N(CCO)c4cccc5[nH]ncc45)n3)cc21` [GTC000254A], for which the IC50 worked out at 4.75 nM. In other words, the single-digit nanomolar range.

Molecule `O=C(COc1ccc(Nc2nccc(Nc3cccc4[nH]ncc34)n2)cc1)NCCCO` [GTC000192A] returned an IC50 of 611 nM.

Regarding `CCN(c1nc(Nc2ccc3[nH]c(=O)n(C)c3c2)ncc1F)c1cccc2[nH]ncc12` [GTC000321A], the IC50 was found to be 21.2 nM.

The molecule `NCCCN(c1nc(Nc2ccc3c(c2)S(=O)(=O)CC3)ncc1F)c1cccc2[nH]ncc12` [GTC000252A] showed an IC50 of 4.94 nM.

In the case of `COCCCN(c1nc(Nc2cccc(S(N)(=O)=O)c2)ncc1F)c1cccc2[nH]ncc12` [GTC000301A], it took 12.1 nM to reach half-maximal inhibition (IC50).

Turning to `Cc1cc(=O)[nH]c2ccc(Nc3nccc(Nc4cccc5[nH]ncc45)n3)cc12` [GTC000159A], the IC50 is 28.1 nM. This IC50 lies about 2.3-fold higher than the previous one.

Consider `O=S(=O)(Cc1cccc(Nc2nccc(Nc3cccc4[nH]ncc34)n2)c1)NCCCO` [GTC000193A], for which the IC50 is 575 nM.

Turning to `c1cc(Nc2ccnc(Nc3ccc4c(c3)CCO4)n2)c2cn[nH]c2c1` [GTC000111A], the IC50 came out at 222 nM.

In turn, `NC(=O)c1cccc(Nc2nccc(N(CCO)c3cccc4[nH]ncc34)n2)c1` [GTC000281A] displayed an IC50 of 7.19 nM.

On to `CCCN(c1nc(Nc2ccc3c(c2)S(=O)(=O)NC3)ncc1F)c1cccc2[nH]ncc12` [GTC000243A], for which the IC50 was 4.09 nM and 3.13 nM and 3.56 nM and 9.55 nM and 5 nM and 4.1 nM and 3.04 nM and 3.52 nM and 5.97 nM.

With `CC(=O)N1CCC(CN(c2ccnc(Nc3ccc4[nH]c(=O)[nH]c4c3)n2)c2cccc3[nH]ncc23)CC1` [GTC000339A], the IC50 is 43.1 nM and 26.8 nM.

Take `COCCCN(c1nc(Nc2ccc3c(c2)S(=O)(=O)NC3)ncc1F)c1cccc2[nH]ncc12` [GTC000228C]: the IC50 is 2.45 nM and 1.1 nM and 2.07 nM and 1.38 nM and 3.35 nM and 1.47 nM and 2.08 nM and 7 nM and 4.35 nM and 2.02 nM and 5.36 nM and 2 nM and 3.66 nM and 2.13 nM and 2.86 nM.

Consider `CCN(c1nc(Nc2ccc3c(c2)S(=O)(=O)N(C)C3)ncc1F)c1cccc2[nH]ncc12` [GTC000289A], for which the IC50 was 13.7 nM and 5.32 nM and 16.3 nM.

Take `CCN(c1nc(Nc2ccc3c(c2)S(=O)(=O)NC3)ncc1Br)c1cccc2[nH]ncc12` [GTC000327A]: the IC50 is 12.1 nM and 21.5 nM and 43.8 nM.

In the case of `O=S1(=O)NCc2ccc(Nc3nccc(N(CCO)c4cccc5[nH]ncc45)n3)cc21` [GTC000223A], the IC50 was determined as 3.45 nM.

Consider `COCCN(c1ccnc(Nc2cccc(-c3ocnc3C)c2)n1)c1cccc2[nH]ncc12` [GTC000323A], for which the IC50 amounted to 21.5 nM.

`CCN(c1nc(Nc2ccc(C(N)=O)cc2)ncc1F)c1cccc2[nH]ncc12` [GTC000260A]: 5.48 nM corresponded to half-maximal inhibition (IC50).

In the case of `c1cc(Nc2nccc(Nc3cccc4[nH]ncc34)n2)cc(-c2cnco2)c1` [GTC000156A], the IC50 was 18.7 nM and 33.6 nM.

Consider `CCN(c1nc(Nc2ccc(C)c(S(=O)(=O)NCCO)c2)ncc1F)c1cccc2[nH]ncc12` [GTC000343A], for which the IC50 was 32.7 nM.

As for `CCN(c1nc(Nc2cccc(C(N)=O)c2)ncc1F)c1cccc2[nH]ncc12` [GTC000318A], the IC50 is 13.4 nM and 35.2 nM.

Regarding `Cc1cc(NC(=O)Cc2ccc(Nc3nccc(Nc4cccc5[nH]ncc45)n3)cc2)no1` [GTC000206A], 640 nM corresponded to half-maximal inhibition (IC50).

As for `CCN(c1nc(Nc2ccc3c(cnn3C(C)C)c2)ncc1F)c1cccc2[nH]ncc12` [GTC000305A], the IC50 was 29.2 nM and 7.13 nM.

In turn, `O=C1CNC(=O)N1c1cccc(Nc2nccc(Nc3cccc4[nH]ncc34)n2)c1` [GTC000167A] came in with an IC50 of 233 nM.

Consider `O=C(Cc1ccc(Nc2nccc(Nc3cccc4[nH]ncc34)n2)cc1)Nc1ccc(Cl)cc1` [GTC000214A], for which the IC50 was determined as 1400 nM.

For the molecule `CCCN(c1nc(Nc2ccc3c(c2)S(=O)(=O)CC3)ncc1F)c1cccc2[nH]ncc12` [GTC000350A], the IC50 worked out at 40.6 nM.

`CS(=O)(=O)Cc1ccc(Nc2nccc(Nc3cccc4[nH]ncc34)n2)cc1` [GTC000207A] had an IC50 of 232 nM.

Turning to `c1cc(Nc2nccc(Nc3cccc4[nH]ncc34)n2)cc(-c2cc[nH]n2)c1` [GTC000126A], the IC50 is 22.3 nM and 41.9 nM.

As to `FC(F)(F)c1cccc(Nc2nccc(Nc3cccc4[nH]ncc34)n2)c1` [GTC000132A], the IC50 was 154 nM and 127 nM and 151 nM and 440 nM.

The molecule `COCCCN(c1nc(Nc2ccc3c(c2)COC(=O)N3)ncc1F)c1cccc2[nH]ncc12` [GTC000273A] registered an IC50 of 6.78 nM.

Turning to `NCCCN(c1ccnc(Nc2ccc3c(c2)S(=O)(=O)NC3)n1)c1cccc2[nH]ncc12` [GTC000227A], the IC50 is 0.857 nM and 0.75 nM and 3.63 nM.

Consider `CN(c1nc(Nc2cccc(C(N)=O)c2)ncc1F)c1cccc2[nH]ncc12` [GTC000366A], for which the IC50 is 110 nM.

In turn, `CC(=O)NCCCCCN(c1ccnc(Nc2ccc3[nH]c(=O)[nH]c3c2)n1)c1cccc2[nH]ncc12` [GTC000310A] showed an IC50 of 16.4 nM.

With `c1cc(Nc2ccnc(Nc3cccc4[nH]ncc34)n2)c2cn[nH]c2c1` [GTC000113A], inhibition was half-maximal at 160 nM (IC50).

The molecule `COCCCN(c1ccnc(Nc2ccc3[nH]c(=O)[nH]c3c2)n1)c1cccc2[nH]ncc12` [GTC000246A] registered an IC50 of 3.6 nM.

On to `CC1(C)Oc2ccc(Nc3nccc(Nc4cccc5[nH]ncc45)n3)cc2NC1=O` [GTC000145A], for which the IC50 was 38.6 nM and 153 nM.

Take `CC(=O)NCCCCN(c1ccnc(Nc2ccc3[nH]c(=O)[nH]c3c2)n1)c1cccc2[nH]ncc12` [GTC000231A]: 1.42 nM corresponded to half-maximal inhibition (IC50).

For `Cn1ncc2cc(Nc3nccc(N(CCCO)c4cccc5[nH]ncc45)n3)ccc21` [GTC000225A], the IC50 is 20.6 nM and 18.5 nM.
